Laboratory results reported in patent US20240309012A1, “ISOQUINOLINE COMPOUND, MANUFACTURING METHOD THEREFOR, AND APPLICATION THEREOF” (priority 2020, published 2024).
Where two headings read alike, the source gives them in different places.

Tests used:
[1] = Cytotoxicity test on Vero E6 cells by CCK8 kit; assay type: cell-based; details: African green monkey
Protocol: (§1) In this example, the median toxic concentration (CC50) of each example on Vero E6 cells was analysed and determined by CCK8 kit.

[2] = tested on: 2019 novel coronavirus (SARS-CoV-2); assay: Inhibition of 2019 novel coronavirus (SARS-CoV-2) replication in Vero E6 cells, virus copy number by qRT-PCR; assay type: cell-based
Vero E6 cells = assay: Cytotoxicity test on Vero E6 cells by CCK8 kit; assay type: cell-based
Protocol: as §1

SARS-CoV-2 = details: existing literature; cited from earlier work
[3] = Severe acute respiratory syndrome coronavirus 2, Vero C1008, Vero E6 cells, MOI 0.01, 24 h p.i., qRT-PCR of supernatant
[4] = Severe acute respiratory syndrome coronavirus 2, Vero C1008, 24 h

| Compound | CC50 [1] [µM] | EC50 [2, 3] [µM] | other results |
| --- | --- | --- | --- |
| COc1cc2c3cc1Oc1c(OC)c(OC)cc4c1[C@@H](Cc1ccc(C#N)c(c1)Oc1ccc(cc1)C[C@@H]3N(C)CC2)N(C)CC4 [Compound 1] | 25.6 | 0.7 |  |
| COc1cc2c3cc1Oc1c(OC)c(OC)cc4c1[C@@H](Cc1ccc(C=O)c(c1)Oc1ccc(cc1)C[C@@H]3N(C)CC2)N(C)CC4 [Compound 2] | 102 | 1.19 |  |
| COc1cc2c3cc1Oc1c(OC)c(OC)cc4c1[C@@H](Cc1ccc(CO)c(c1)Oc1ccc(cc1)C[C@@H]3N(C)CC2)N(C)CC4 [Compound 3] | 70.5 | 1.12 |  |
| CCCCNC(=O)Oc1ccc2cc1Oc1ccc(cc1)C[C@H]1c3cc(c(OC)cc3CCN1C)Oc1c(OC)c(OC)cc3c1[C@@H](C2)N(C)CC3 [Compound 4] | 31.5 |  | EC50 [2, 4]: 0.94 µM |
| COc1cc2c3cc1Oc1c(OC)c(OC)cc4c1[C@@H](Cc1ccc(OC(=O)CCCC[C@H]5CCSS5)c(c1)Oc1ccc(cc1)C[C@@H]3N(C)CC2)N(C)CC4 [Compound 5] | 172 | 1.5 |  |
| COC(=O)c1ccc2cc1Oc1ccc(cc1)C[C@H]1c3cc(c(OC)cc3CCN1C)Oc1c(OC)c(OC)cc3c1[C@@H](C2)N(C)CC3 [Compound 8] | 31.4 | 0.36 |  |
| COc1cc2c3cc1Oc1c(OC)c(OC)cc4c1[C@@H](Cc1ccc(C(N)=O)c(c1)Oc1ccc(cc1)C[C@@H]3N(C)CC2)N(C)CC4 [Compound 9] | 63.2 | 0.55 |  |
| COc1cc2c3cc1Oc1c(OC)c(OC)cc4c1[C@@H](Cc1cc(c5oc(=O)[nH]c5c1)Oc1ccc(cc1)C[C@@H]3N(C)CC2)N(C)CC4 [Compound 18] | 14.7 | 0.9 |  |
| COc1cc2c3cc1Oc1c(OC)c(OC)cc4c1[C@@H](Cc1ccc(C(C)=O)c(c1)Oc1ccc(cc1)C[C@@H]3N(C)CC2)N(C)CC4 [Compound 25] | 29.4 | < 2 |  |
| COc1cc2c3cc1Oc1c(OC)c(OC)cc4c1[C@@H](Cc1ccc(C(=O)NC5CCCC5)c(c1)Oc1ccc(cc1)C[C@@H]3N(C)CC2)N(C)CC4 [Compound 28] | 22.5 | 2.4 |  |
| COc1cc2c3cc1Oc1c(OC)c(OC)cc4c1[C@@H](Cc1cc(cc([N+](=O)[O-])c1)Oc1ccc(cc1)C[C@@H]3N(C)CC2)N(C)CC4 [Compound 33] | 24.3 | 0.63 |  |
| COc1cc2c3cc1Oc1c(OC)c(OC)cc4c1[C@@H](Cc1cccc(c1)Oc1ccc(cc1)C[C@@H]3N(C)CC2)N(C)CC4 [Compound 39] | 17.1 | 0.93 |  |
| C=C(C)c1ccc2cc1Oc1ccc(cc1)C[C@H]1c3cc(c(OC)cc3CCN1C)Oc1c(OC)c(OC)cc3c1[C@@H](C2)N(C)CC3 [Compound 40] | 11.7 | 0.95 |  |
| COc1cc2c3cc1Oc1c(OC)c(OC)cc4c1[C@@H](Cc1ccc(C)c(c1)Oc1ccc(cc1)C[C@@H]3N(C)CC2)N(C)CC4 [Compound 41] | 10.2 | 2.45 |  |
| C=CC(=O)Nc1ccc2cc1Oc1ccc(cc1)C[C@H]1c3cc(c(OC)cc3CCN1C)Oc1c(OC)c(OC)cc3c1[C@@H](C2)N(C)CC3 [Compound 42] | 31.1 | < 2 |  |
| CCCCCNC(=O)c1ccc2cc1Oc1ccc(cc1)C[C@H]1c3cc(c(OC)cc3CCN1C)Oc1c(OC)c(OC)cc3c1[C@@H](C2)N(C)CC3 [Compound 43] | 10.4 | 2.09 |  |

| Compound | CC50 [1] [µM] | EC50 [2, 3] [µM] | other results |
| --- | --- | --- | --- |
| COc1cc2c3cc1Oc1c(OC)c(OC)cc4c1[C@@H](Cc1ccc(C5CC5)c(c1)Oc1ccc(cc1)C[C@@H]3N(C)CC2)N(C)CC4 [Compound 44] | 10.8 | 2.25 |  |
| COc1cc2c3cc1Oc1c(OC)c(OC)cc4c1[C@@H](Cc1ccc(C(C)O)c(c1)Oc1ccc(cc1)C[C@@H]3N(C)CC2)N(C)CC4 (stereo partly drawn) [Compound 46] | 29.7 | 1.02 |  |
| COc1cc2c3cc1Oc1c(OC)c(OC)cc4c1[C@@H](Cc1ccc(C(=O)N5CCCCC5)c(c1)Oc1ccc(cc1)C[C@@H]3N(C)CC2)N(C)CC4 [Compound 47] | 24.6 | < 2 |  |
| COc1cc2c3cc1Oc1c(OC)c(OC)cc4c1[C@@H](Cc1ccc(C(=O)NC5CC5)c(c1)Oc1ccc(cc1)C[C@@H]3N(C)CC2)N(C)CC4 [Compound 49] | 62.3 | < 2 |  |
| COc1cc2c3cc1Oc1c(OC)c(OC)cc4c1[C@@H](Cc1ccc(C(=O)Nc5ccccc5)c(c1)Oc1ccc(cc1)C[C@@H]3N(C)CC2)N(C)CC4 [Compound 51] | 10.2 | < 2 |  |
| CCCCNC(=O)Oc1c(OC)cc2c3c1Oc1cc4c(cc1OC)CCN(C)[C@H]4Cc1ccc(cc1)Oc1cc(ccc1OC)C[C@H]3N(C)CC2 [Compound 53] | 22.2 |  | EC50 [2, 4]: < 2 µM |
| COc1cc2c3cc1Oc1c(OC)c(OC)cc4c1[C@@H](Cc1ccc(C(=O)Nc5ccc(C(F)(F)F)cc5)c(c1)Oc1ccc(cc1)C[C@@H]3N(C)CC2)N(C)CC4 [Compound 54] | 10.5 | < 2 |  |
| COc1cc2c3cc1Oc1c(OC)c(OC)cc4c1[C@@H](Cc1ccc(C(=O)NC(C)C)c(c1)Oc1ccc(cc1)C[C@@H]3N(C)CC2)N(C)CC4 [Compound 55] | 32 | < 2 |  |
| COc1cc2c3cc1Oc1c(OC)c(OC)cc4c1[C@@H](Cc1ccc(C(=O)NC5CCC5)c(c1)Oc1ccc(cc1)C[C@@H]3N(C)CC2)N(C)CC4 [Compound 57] | 33.9 | < 2 |  |
| COc1cc2c3cc1Oc1c(OC)c(OC)cc4c1[C@@H](Cc1ccc(C(=O)Nc5cccnc5)c(c1)Oc1ccc(cc1)C[C@@H]3N(C)CC2)N(C)CC4 [Compound 58] | 26.4 | < 2 |  |
| COc1ccc(NC(=O)c2ccc3cc2Oc2ccc(cc2)C[C@H]2c4cc(c(OC)cc4CCN2C)Oc2c(OC)c(OC)cc4c2[C@@H](C3)N(C)CC4)cc1 [Compound 59] | 10.6 | < 2 |  |
| COc1cc2c3cc1Oc1c(OC)c(OC)cc4c1[C@@H](Cc1ccc(C(=O)C5CC5)c(c1)Oc1ccc(cc1)C[C@@H]3N(C)CC2)N(C)CC4 [Compound 61] | 13.7 | < 2 |  |
| COc1cc2c3cc1Oc1c(OC)c(OC)cc4c1[C@@H](Cc1ccc(C(=O)NCCOCCO)c(c1)Oc1ccc(cc1)C[C@@H]3N(C)CC2)N(C)CC4 [Compound 62] | 123 | < 2 |  |
| COc1cc2c3cc1Oc1c(OC)c(OC)cc4c1[C@@H](Cc1ccc(C(=O)OCCOCCO)c(c1)Oc1ccc(cc1)C[C@@H]3N(C)CC2)N(C)CC4 [Compound 65] | 58.4 | < 2 |  |
| Berbamine hydrochloride [reference compound] |  |  | CC50 (Vero E6 cells): 29.9 µM; Anti-novel coronavirus effect (in words) (SARS-CoV-2): not strong; EC50 [2]: 14.5 µM |
